Key:
L. casei (S1) = test: Encapsulation efficiency into bacteria by vacuum infusion; format: physicochemical, Lactobacillus casei; details: vacuum infused, 35% ethanol
E. coli (BL21) = test: as above; format: physicochemical; details: vacuum infused, 35% ethanol
inactivated yeast = test: Encapsulation of bioactives into inactivated yeast cells (conventional diffusion, vacuum infusion, pressure); format: physicochemical, Saccharomyces cerevisiae
Text: Prior to encapsulation of bioactives, selected strains of both yeast and algal cells are inactivated with a chemical treatment. Chemical inactivation of yeast or algal cells stops the metabolic processes while preserving the structure and chemical composition of the cells. […] The concentration of ethanol is selected based on the results of the previous study. Briefly, 1 gm of yeast or algal cells pellet is suspended in the 35% ethanolic solution of the selected bioactive compound. […] We have determined the % ethanol to achieve sufficient encapsulation of the selected encapsulated bioactive compounds using both the vacuum and high pressure assisted encapsulation process. Yeast or algal cell samples suspended in the ethanolic solution with the bioactive compound are sealed in boilable vacuum bags (Prime Source) at 99% vacuum (Ultravac 250, Koch Equipment LLC). […] The sealed samples are covered with aluminum foil to prevent any photo-degradation of the bioactives and incubated at room temperature (25° C.) for 10 minutes. Samples are emptied into 50 mL centrifuge tubes, centrifuged at 2200 rpm for 10 minutes to pellet the cells and the pelleted cells are washed twice with ethanolic solution (35%) and then five times with excess water to remove unencapsulated bioactives. […] Samples are emptied into 50 mL centrifuge tubes, centrifuged to pellet the cells (2200 rpm for 10 minutes) and the pelleted cells are washed twice with ethanolic solution (35%) and then five times with excess water to remove unencapsulated bioactives. Briefly, yeast or algal samples in a 35% ethanolic solution of the selected bioactive compound are covered with a single layer of aluminum foil to prevent photolysis. Samples are then placed into a rotary incubator at 50° C. and 200 rpm for 24 hours. After removal from the incubator, cells are removed by centrifugation at 2000 rpm for 10 minutes. The supernatant is decanted to isolate the pelleted cells and the pelleted cells are washed as described above to remove unencapsulated bioactives. Cells are sonicated to disrupt the cellular structure. A methanol extraction is utilized to extract the encapsulated bioactives from the disrupted yeast or algal cells. 0.05 g of cells (wet basis) with encapsulated bioactives are sonicated to disrupt cellular structure and subsequently incubated with 1 mL methanol. Samples are then briefly vortexed and centrifuged at 14,000 rpm for 10 minutes. The concentration of bioactive compound dissolved in the organic phase is measured using UV-vis spectrophotometer. […] Measuring loading of these bioactive compounds in various emulsions and nanoparticles has been described. The encapsulation efficiency is determined as follows: [formula] where CE is the mass of extracted bioactive from the cells after encapsulation and CT is the amount of bioactive initially added to the cells. We have developed an innovative bioencapsulation process that provides rapid and efficient infusion of bioactives in isolated cells and lipid bodies. In this process, yeast or algal cells incubated in a solution containing bioactive were subjected to a vacuum (97% vacuum) or mild-high hydrostatic pressure (35-100 MPa) for ˜5-10 minutes. […] The results of these measurements were compared with the conventional process used for encapsulation of bioactive compounds in yeast cells.

porcine skin = test: Nile Red release from yeast encapsulation system into porcine skin; details: yeast microcapsules loaded with Nile Red; room temperature, 12 hours
Experimental: The Nile Red fluorescence signal contrast of porcine skin incubated with yeast encapsulation system and non-incubated porcine skin was evaluated. Yeast microcapsules were loaded with Nile Red dye and spread on porcine skin surface. After incubation at room temperature for 12 hours, fluorescence images were taken on the 20 μm-thick slice of tissue cross-section. The results are depicted in FIG. 17. […] This encapsulation system thus provides an option for convenient, pain-free and efficient compound delivery, which can be self-administered and operate as an alternative to oral dosing or injections.

[1] = Thermal stability of retinol, cell encapsulated versus emulsions; format: physicochemical; details: vacuum and/or HPP infusion methods, compared to emulsions
Experimental: Comparative percent recovery of retinol in emulsions and yeast after processing at 70° C. for 30 minutes. The retinol was extracted using methanol and the absorbance was measured at 325 nm.

[2] = Storage stability of encapsulated retinol at room temperature, exposure to atmospheric oxygen; format: physicochemical; details: cell-based encapsulants / lipid membrane microcapsules
Text: FIG. 10 illustrates stability of retinol encapsulated yeast cells as compared to retinol in emulsion and nanoparticles at room temperature. Stability of all-trans retinol encapsulated in casein stabilized emulsion, zein nanoparticles and yeast cells. The percent recovery of retinol in model systems after exposure to atmospheric oxygen is shown. Yeast cells provided the most stability to retinol, nearly 100% up to 5 days, while zein and casein systems have <10% after 4 days.
Retinol was selected as a model bioactive as it is highly susceptible to oxidative degradation at room temperature.

[3] = 100 mM PBS, pH = 6.5, Conventional Diffusion, saturated solution, 35% v/v ethanol
[4] = 100 mM PBS, pH = 6.5, HPP (200 MPa), saturated solution, 35% v/v ethanol
[5] = 100 mM PBS, pH = 6.5, Vacuum Infusion, saturated solution, 35% v/v ethanol
[6] = 2% Tween 20 in 100 mM Tris Buffer, pH = 8, Conventional Diffusion, saturated solution, 35% v/v ethanol
[7] = 2% Tween 20 in 100 mM Tris Buffer, pH = 8, HPP (200 MPa), saturated solution, 35% v/v ethanol
[8] = 2% Tween 20 in 100 mM Tris Buffer, pH = 8, Vacuum Infusion, saturated solution, 35% v/v ethanol
[9] = Conventional Diffusion, Single Loading
[10] = Vacuum, Dual Loading (curcumin and fisetin added together)
[11] = commercial yeast, 1 vacuum cycle, 35% ethanol
[12] = commercial yeast, 3 cycles of 99% vacuum, 5 min incubation between, no additional fisetin added
[13] = inactivated yeast, Conventional Methods, 24 hours, 50° C.
[14] = inactivated yeast, Mild Pressure (35 Mpa), 10 minutes
[15] = inactivated yeast, Vacuum (5 minutes)

Structure (SMILES): O=c1c(O)c(-c2ccc(O)c(O)c2)oc2cc(O)ccc12 [Fisetin, fisetin]
- Encapsulation Efficiency (L. casei (S1)): 43.2%
- Mass of Encapsulated Bioactive in Bacteria (L. casei (S1)): 2.271 mg/g
- Encapsulation Efficiency (E. coli (BL21)): 30.8%
- Mass of Encapsulated Bioactive in Bacteria (E. coli (BL21)): 1.619 mg/g
- Encapsulation Efficiency (inactivated yeast; [3]): 42.6%
- Mass of Encapsulated Bioactive in Yeast (inactivated yeast; [3]): 1.11 mg/g
- Encapsulation Efficiency (inactivated yeast; [4]): 99.3%
- Mass of Encapsulated Bioactive in Yeast (inactivated yeast; [4]): 2.59 mg/g
- Encapsulation Efficiency (inactivated yeast; [5]): 105.3%
- Mass of Encapsulated Bioactive in Yeast (inactivated yeast; [5]): 2.75 mg/g
- Encapsulation Efficiency (inactivated yeast; [6]): 58.7%
- Mass of Encapsulated Bioactive in Yeast (inactivated yeast; [6]): 2.31 mg/g
- Encapsulation Efficiency (inactivated yeast; [7]): 54.8%
- Mass of Encapsulated Bioactive in Yeast (inactivated yeast; [7]): 2.16 mg/g
- Encapsulation Efficiency (inactivated yeast; [8]): 80.7%
- Mass of Encapsulated Bioactive in Yeast (inactivated yeast; [8]): 3.18 mg/g
- Encapsulation Efficiency (inactivated yeast; [9]): 12.2%
- Mass of Encapsulated Bioactive in Yeast (inactivated yeast; [9]): 0.061 mg/g
- Encapsulation Efficiency (inactivated yeast; [10]): 96.0%
- Mass of Encapsulated Bioactive in Yeast (inactivated yeast; [10]): 0.480 mg/g
- Encapsulated Efficiency (inactivated yeast; [11]): 69.5%
- Mass of Encapsulated Bioactive in Yeast (inactivated yeast; [11]): 3.65 mg/g
- Encapsulated Efficiency (inactivated yeast; [12]): 76.4%
- Mass of Encapsulated Bioactive in Yeast (inactivated yeast; [12]): 4.01 mg/g
- encapsulation efficiency (percent ratio of encapsulated bioactive with respect to total bioactive in solution) (inactivated yeast; [13]): 11%
- encapsulation efficiency (percent ratio of encapsulated bioactive with respect to total bioactive in solution) (inactivated yeast; [14]): 68%
- encapsulation efficiency (percent ratio of encapsulated bioactive with respect to total bioactive in solution) (inactivated yeast; [15]): 64%
- encapsulation efficiency relative to conventional diffusion techniques (inactivated yeast; inactivated yeast, vacuum or HPP): 1.4-2.3 ×

Structure (SMILES): CCN(CC)c1ccc2nc3c4ccccc4c(=O)cc-3oc2c1 [Nile Red]
- release and permeation into porcine skin (porcine skin): effectively released from yeast cells, further permeated crossing the stratum corneum and reached the dermis layer

Structure (SMILES): CC1=C(/C=C/C(C)=C/C=C/C(C)=C/CO)C(C)(C)CCC1 [Retinol, retinol]
- reduction of loss of retinol during thermal processing [1]: 25-30%
- improvement of storage stability as compared to other encapsulation systems, including nanoparticles and emulsions [2]: at least 5 fold
- encapsulation efficiency (percent ratio of encapsulated bioactive with respect to total bioactive in solution) (inactivated yeast; [13]): 15%
- encapsulation efficiency (percent ratio of encapsulated bioactive with respect to total bioactive in solution) (inactivated yeast; [14]): 70%
- encapsulation efficiency (percent ratio of encapsulated bioactive with respect to total bioactive in solution) (inactivated yeast; [15]): 45%

Source: US10864168B2, “Bioactive delivery vehicles” (The Regents of the University of California, priority 2014, dated 2020)
